Assay [1] concerns the target T1, purified porcine DP IV (Sus scrofa, UniProt P22411). Kind of assay: Determination of IC50-values, Gly-Pro-pNA cleavage by DP IV. Type of assay: biochemical. To be noted: Gly-Pro-pNA 0.4 mM, HEPES pH 7.6, 30° C.; read-out: IC50. How it is done:
(§1) 100 μl inhibitor stock solution were mixed with 100 μl buffer (HEPES pH 7.6) and 50 μl substrate (Gly-Pro-pNA, final concentration 0.4 mM) and preincubated at 30° C. Reaction was started by addition of 20 μl purified porcine DP IV. Formation of the product pNA was measured at 405 nm over 10 min using the HTS 7000 Plus plate reader (Perkin Elmer) and slopes were calculated. The final inhibitor concentrations ranged between 1 mM and 30 nM.
For calculation of IC50-values GraFit 4.0.13 (Erithacus Software) was used.

The target in assay [2] is T1, purified porcine DP IV. Description: Determination of Ki-values, Gly-Pro-pNA cleavage by DP IV. It is filed as biochemical. To be noted: Gly-Pro-pNA 0.05-0.4 mM. How it is done: as §1
Calculations were performed using the GraFit Software.

Assay [3] concerns diabetic Zucker rats (fa/fa). Kind of assay: Oral glucose tolerance test (OGTT) in diabetic Zucker rats. Type of assay: in vivo. The following applies: 100 mg/kg b.w. p.o.; for Improvement of glucose tolerance: AUC test compound vs AUC Control; for AUC test compound (glucose, OGTT): OGTT 2 g/kg glucose. How it is done: N=30 male Zucker rats (fa/fa), mean age 11 weeks (5-12 weeks), mean body weight 350 g (150-400 g), were purchased from Charles River (Sulzfeld, Germany). They were kept for >12 weeks until all the fatty Zucker rats had the characteristics of manifest Diabetes mellitus.
After overnight fasting, the fatty Zucker rats were given placebo, positive control and test substance, respectively, via feeding tube orally (15 G, 75 mm; Fine Science Tools, Heidelberg, Germany) at −10 min. An oral glucose tolerance test (OGTT) with 2 g/kg b.w. glucose as a 40% solution (B. Braun Melsungen, Melsungen, Germany) was implemented at ±0 min. The glucose was administered via a second feeding tube. Arterial blood samples from the carotid catheter were collected at −30 min, −15 min, ±0 min and at 5, 10, 15, 20, 30, 40, 60, 90 and 120 min into 20 μl glass capillaries, which were placed in standard tubes filled with 1 ml solution for hemolysis (blood glucose measurement).
Blood glucose: Glucose levels were measured using the glucose oxidase procedure (Super G Glukosemeβgerät; Dr. Müller Gerätebau, Freital, Germany).

The next assay deals with T2, plasma DP IV (Rattus norvegicus, UniProt P14740).
T2 construct: The assay mixture consisted of 80 μl reagent and 20 μl plasma; from tissue; host or cells: plasma of Wistar rats
Kind of assay: Plasma DP IV activity after intravasal and oral administration in Wistar rats. To be noted: rat, Wistar rats, 100 mg/kg. Type of assay: in vivo. How it is done:
Rats with intact catheter function were given the test substances intravasal (intraarterial) or oral, respectively, in random order (N=3 Wistar rats in each group). As positive control, […]. isoleucine thiazolidine*fumarate were administered intravasal.
After overnight fasting, 100 μl samples of heparinized arterial blood were collected at −30, −5, and 0 min into ice-cooled Eppendorf tubes (see below). The test substances were dissolved freshly in 1.0 ml saline (0.154 mol/l) and were given at 0 min either oral via a feeding tube ([…], 75 mm; Fine Science Tools, Heidelberg, Germany) or intravasal. For the intravasal route, the catheter was immediately flushed with 30 μl saline and an additional 1 ml of saline was given orally via the feeding tube.
Arterial blood samples were taken thereafter at 5, 10 (only in a limited number of experiments), 20, 40, 60 and 120 min from the carotid catheter of the conscious unrestrained rats and were always given into ice cooled Eppendorf tubes (Eppendorf-Netheler-Hinz, Hamburg, Germany) filled with 10 μl 1 M citrate buffer pH 3.0 for prevention of further hydrolysis of tripeptides by plasma DP IV activity. Eppendorf tubes were centrifuged immediately (12000 rpm for 2 min, Hettich Zentrifuge EBA 12, Tuttlingen; Germany): The plasma fractions were store on ice until analysis or were deeply frozen at −20 ° C. until analysis.
Plasma DP IV activity: The assay mixture consisted of 80 μl reagent and 20 μl plasma. Kinetic measurements of the formation of the yellow product 4-nitroaniline were performed at 390 nm for 1 min at 30° C. after 2 min pre-incubation at the same temperature. The activity was expressed as arbitrary units [AU] and DP IV activity [mU/ml].
The absolute values of plasma DP IV activity, the relative change of plasma DP IV activity and the time and extent of maximal inhibition were calculated. Data presentation included the presentation of area under the curve (AUC), which was used for evaluation of extent of inhibition of plasma DP IV activity during the two hours of observation. AUC was calculated using the trapezoidal rule.
To compare relative changes of parameters under the conditions of different initial values of DP IV activity an uniform standardised mean (values) was set up at the beginning of the test (see Figures and Tables).
Statistical evaluations were performed with Microsoft Excel® 97. All variables are presented as mean and standard deviation (SD). Treatment groups were compared by Student's t-test, within-group changes by paired t-test. Two-tailed values of p<0.05 were considered significant.

The structures appear in SMILES notation. Where two headings read alike, the source gives them in different places. Square brackets hold non-standard residues; d marks the D form. Peptide text beside a SMILES is read from it. * marks the point of attachment. aIle = CC[C@@H](C)[C@H](N)C(=O)O; Tic = O=C(O)[C@@H]1Cc2ccccc2CN1; Aoc(2) = CCCCCC[C@H](N)C(=O)O; Phg = N[C@H](C(=O)O)c1ccccc1; Tle = CC(C)(C)[C@H](N)C(=O)O; Pip = O=C(O)[C@@H]1CCCCN1; Nle = CCCC[C@H](N)C(=O)O; Orn = NCCC[C@H](N)C(=O)O; Aze = O=C(O)[C@@H]1CCN1; Nva = CCC[C@H](N)C(=O)O; Abu = CC[C@H](N)C(=O)O; Bn = c1ccc(C*)cc1

T1 sequence (P22411 whole entry): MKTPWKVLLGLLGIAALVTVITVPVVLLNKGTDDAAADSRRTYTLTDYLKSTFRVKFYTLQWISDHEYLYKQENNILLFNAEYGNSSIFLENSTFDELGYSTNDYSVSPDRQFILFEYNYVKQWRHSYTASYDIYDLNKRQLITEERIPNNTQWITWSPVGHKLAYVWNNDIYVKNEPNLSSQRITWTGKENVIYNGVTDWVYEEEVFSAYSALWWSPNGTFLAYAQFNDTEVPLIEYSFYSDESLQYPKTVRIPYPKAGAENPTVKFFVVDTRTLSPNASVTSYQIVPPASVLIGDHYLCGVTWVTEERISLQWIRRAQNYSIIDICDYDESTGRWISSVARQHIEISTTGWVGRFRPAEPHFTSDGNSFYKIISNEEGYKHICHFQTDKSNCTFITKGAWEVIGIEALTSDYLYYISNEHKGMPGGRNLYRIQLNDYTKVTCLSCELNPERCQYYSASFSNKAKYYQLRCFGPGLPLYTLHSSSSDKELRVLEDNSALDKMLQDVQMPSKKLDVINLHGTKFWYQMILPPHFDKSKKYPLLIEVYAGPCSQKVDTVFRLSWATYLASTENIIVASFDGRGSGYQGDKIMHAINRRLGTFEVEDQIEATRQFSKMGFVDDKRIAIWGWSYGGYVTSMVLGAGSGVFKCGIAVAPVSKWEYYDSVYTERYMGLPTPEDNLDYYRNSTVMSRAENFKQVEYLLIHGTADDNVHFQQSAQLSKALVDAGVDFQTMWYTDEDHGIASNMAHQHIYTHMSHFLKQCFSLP
T2 sequence (P14740 37-767 limits assumed): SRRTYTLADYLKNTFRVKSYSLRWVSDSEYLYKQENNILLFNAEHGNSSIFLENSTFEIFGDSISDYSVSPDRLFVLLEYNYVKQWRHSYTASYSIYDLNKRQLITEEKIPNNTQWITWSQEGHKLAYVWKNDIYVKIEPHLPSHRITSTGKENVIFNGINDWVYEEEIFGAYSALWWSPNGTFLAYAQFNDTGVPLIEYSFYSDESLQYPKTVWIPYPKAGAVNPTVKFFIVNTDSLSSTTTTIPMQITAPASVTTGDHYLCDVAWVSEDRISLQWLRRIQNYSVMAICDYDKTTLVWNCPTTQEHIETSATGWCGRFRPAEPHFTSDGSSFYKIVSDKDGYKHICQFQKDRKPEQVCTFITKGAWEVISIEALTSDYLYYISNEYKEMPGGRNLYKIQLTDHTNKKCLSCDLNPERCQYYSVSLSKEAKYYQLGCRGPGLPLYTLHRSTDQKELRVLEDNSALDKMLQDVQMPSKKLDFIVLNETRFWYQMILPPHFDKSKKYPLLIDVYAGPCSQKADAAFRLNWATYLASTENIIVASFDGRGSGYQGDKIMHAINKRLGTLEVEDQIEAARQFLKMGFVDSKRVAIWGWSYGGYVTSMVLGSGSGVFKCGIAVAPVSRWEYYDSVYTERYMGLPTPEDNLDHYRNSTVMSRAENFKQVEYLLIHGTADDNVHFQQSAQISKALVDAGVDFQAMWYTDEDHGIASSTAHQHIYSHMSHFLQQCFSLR

As usually defined, the IC50 is the midpoint of a concentration-inhibition curve. Usually Ki stands for a measure of affinity in units of concentration, obtained from inhibition or displacement. As to `CCCCCC[C@H](N)C(=O)N1CCC[C@H]1C(=O)N[C@H](C(=O)O)[C@@H](C)CC` [AOA-Pro-Ile, 2-Amino octanoic acid-Pro-Ile] (H-[Aoc(2)]-Pro-Ile-OH), the IC50 at purified porcine DP IV [1] was 42.1 µM. The molecule also came in with a Ki at purified porcine DP IV [2] of 12.6 µM.

`CC[C@H](N)C(=O)N1CCC[C@H]1C(=O)N[C@H](C(=O)O)[C@@H](C)CC` [Abu-Pro-Ile] (H-[Abu]-Pro-Ile-OH; N-terminus and C-terminus assumed): the IC50 on purified porcine DP IV [1] was found to be 34.3 µM. The molecule also had a Ki at purified porcine DP IV [2] of 8.75 µM.

For the molecule `CC[C@H](C)[C@H](NC(=O)[C@@H]1CCCN1C(=O)[C@@H]1CCN1)C(=O)O` [Aze−Pro-Ile, Aze-Pro-Ile] (H-[Aze]-Pro-Ile-OH; N-terminus and C-terminus assumed), the IC50 on purified porcine DP IV [1] was 72.8 µM. For the same molecule, the Ki on purified porcine DP IV [2] was found to be 20.5 µM.

With `CC[C@H](C)[C@H](N)C(=O)N1CCC[C@H]1C(=O)N[C@H](C(=O)O)C(C)(C)C` [Ile-Pro-t-butyl-Gly] (H-Ile-Pro-[Tle]-OH; N-terminus and C-terminus assumed), in assay [3], the “Improvement of glucose tolerance” value was found to be 5.3% and the “AUC test compound (glucose, OGTT)” value is 819.5 mmol·min/L. On purified porcine DP IV [1], the IC50 worked out at 82.3 µM. The same molecule yielded a Ki at purified porcine DP IV [2] of 18.9 µM.

Regarding `CC[C@@H](C)[C@H](NC(=O)[C@@H]1CCCN1C(=O)[C@@H](N)[C@@H](C)CC)C(=O)O` [Ile−Pro-(allo)Ile, Ile-Pro-allo-Ile], the IC50 on purified porcine DP IV [1] is 15.4 µM. The affinity at purified porcine DP IV [2] corresponds to a Ki of 5.22 µM.

In the case of `CCCC[C@H](N)C(=O)N1CCC[C@H]1C(=O)N[C@H](C(=O)O)[C@@H](C)CC` [Nle−Pro-Ile, Nle-Pro-Ile] (H-[Nle]-Pro-Ile-OH; N-terminus and C-terminus assumed), at purified porcine DP IV [1], the IC50 came out at 21.9 µM. For the same molecule, the Ki at purified porcine DP IV [2] is 9.6 µM.

As for `CCC[C@H](N)C(=O)N1CCC[C@H]1C(=O)N[C@H](C(=O)O)[C@@H](C)CC` [Nva-Pro-Ile] (H-[Nva]-Pro-Ile-OH; N-terminus and C-terminus assumed), the IC50 at purified porcine DP IV [1] came out at 24.9 µM. Also, on purified porcine DP IV [2], affinity was put at a Ki of 6.17 µM.

On to `CC[C@H](C)[C@H](NC(=O)[C@@H]1CCCN1C(=O)[C@@H](N)CCCN)C(=O)O` [Orn-Pro-Ile] (H-[Orn]-Pro-Ile-OH; N-terminus and C-terminus assumed), for which the IC50 on purified porcine DP IV [1] turned out to be 216 µM.

For `CC[C@H](C)[C@H](NC(=O)[C@@H]1CCCN1C(=O)[C@@H](N)c1ccccc1)C(=O)O` [Phg-Pro-Ile] (H-[Phg]-Pro-Ile-OH; N-terminus and C-terminus assumed), the IC50 at purified porcine DP IV [1] is 154 µM.

As for `CC[C@H](C)[C@H](NC(=O)[C@@H]1CCCN1C(=O)[C@@H]1CCCCN1)C(=O)O` [Pip-Pro-Ile] (H-[Pip]-Pro-Ile-OH; N-terminus and C-terminus assumed), the IC50 on purified porcine DP IV [1] is more than 100000 µM.

Turning to `CC[C@H](C)[C@H](NC(=O)[C@@H]1CCCN1C(=O)[C@@H](N)COCc1ccccc1)C(=O)O` [Ser(Bzl)-Pro-Ile] (H-Ser(Bn)-Pro-Ile-OH; N-terminus and C-terminus assumed), the IC50 on purified porcine DP IV [1] was found to be 67.8 µM. On purified porcine DP IV [2], this molecule returned a Ki of 21.6 µM.

Turning to `CC[C@H](C)[C@H](NC(=O)[C@@H]1CCCN1C(=O)[C@@H]1Cc2ccccc2CN1)C(=O)O` [Tic-Pro-Ile] (H-[Tic]-Pro-Ile-OH; N-terminus and C-terminus assumed), the IC50 at purified porcine DP IV [1] turned out to be 800 µM.

For the molecule `CC[C@@H](C)[C@H](NC(=O)[C@@H]1CCCN1C(=O)[C@@H](N)Cc1ccc(O)cc1)C(=O)O` [Tyr-Pro-(allo)Ile, Tyr-Pro-allo-Ile] (H-Tyr-Pro-[aIle]-OH; N-terminus and C-terminus assumed), on purified porcine DP IV [1], the IC50 was 64.1 µM. Besides, the Ki on purified porcine DP IV [2] worked out at 18.2 µM.

As to `CC[C@@H](C)[C@H](NC(=O)[C@@H]1CCCN1C(=O)[C@@H](N)C(C)C)C(=O)O` [Val-Pro-(allo)Ile, Val-Pro-allo-Ile], the IC50 on purified porcine DP IV [1] amounted to 18 µM. On purified porcine DP IV [2], this molecule registered a Ki of 9.54 µM.

As to `CC(C)[C@H](N)C(=O)N1CCC[C@H]1C(=O)N[C@H](C(=O)O)C(C)(C)C` [Val-Pro-t-butyl-Gly] (H-Val-Pro-[Tle]-OH; N-terminus and C-terminus assumed), in assay [3], the “Improvement of glucose tolerance” value turned out to be 16.5% and the “AUC test compound (glucose, OGTT)” value was 722.4 mmol·min/L. Moreover, the Ki on purified porcine DP IV [2] turned out to be 19.6 µM.

As to `CC(C)(C)[C@H](N)C(=O)N1CCC[C@H]1C(=O)NCC(=O)O` [t-butyl-Gly-Pro-Gly] (H-[Tle]-Pro-Gly-OH; N-terminus and C-terminus assumed), the IC50 at purified porcine DP IV [1] was 56.3 µM. On purified porcine DP IV [2], this molecule came in with a Ki of 15.1 µM.

With `CC[C@H](C)[C@H](NC(=O)[C@@H]1CCCN1C(=O)[C@@H](N)C(C)(C)C)C(N)=O` [t-butyl-Gly-Pro-Ile-NH2, t-butyl-Gly-Pro-Ile-amide] (H-[Tle]-Pro-Ile-NH2; N-terminus assumed), on purified porcine DP IV [1], the IC50 stood at 22.9 µM. In addition, the Ki at purified porcine DP IV [2] turned out to be 5.6 µM.

One may read the inhibition as the relative decrease from the control value, in per cent. On to `CC(C)[C@H](NC(=O)[C@@H]1CCCN1C(=O)[C@@H](N)C(C)(C)C)C(=O)O` [t-butyl-Gly-Pro-Val] (H-[Tle]-Pro-Val-OH; N-terminus and C-terminus assumed), for which the inhibition at 100 mg/kg turned out to be 72% on plasma DP IV (iv, i.v., read-out: DPIV inhibition at tmax, i.v.) and 25% on plasma DP IV (po, p.o., read-out: DPIV inhibition at tmax, p.o.). Besides, the IC50 at purified porcine DP IV [1] amounted to 13.8 µM. For the same molecule, affinity at purified porcine DP IV [2] was put at a Ki of 3.1 µM.

On to `CC(C)(C)[C@H](N)C(=O)N1CCC[C@H]1C(=O)N[C@H](C(=O)O)C(C)(C)C` [t-butyl-Gly-Pro-t-butyl-Gly] (H-[Tle]-Pro-[Tle]-OH; N-terminus and C-terminus assumed), for which the IC50 on purified porcine DP IV [1] turned out to be 24.5 µM. Besides, affinity at purified porcine DP IV [2] was put at a Ki of 14.1 µM.

Values taken from US20030135023A1, “Peptide structures useful for competitive modulation of dipeptidyl peptidase IV catalysis” (priority 2001, published 2003).
